Experimental data as given in patent US12257264B2, “Combination therapy for HIV with adenosine derivative and capsid inhibitors” (Brii Biosciences, Inc., priority 2021, dated 2025).
“And” between values parts separate entries of the source, which are not always exact repeats. Equal entries are not always repeated.

What was measured:
[1] = Plasma stability and conversion to EFdA
Experimental: The pooled frozen plasma was thawed in a water bath at 37° C. prior to experiment. Plasma was centrifuged at 4000 rpm for 5 min and the clots were removed if any. The pH will be adjusted to 7.4±0.1 if required.
Preparation of test compounds and positive control (propantheline bromide): 1 mM intermediate solution was prepared by diluting 10 μL of the stock solution with 90 μL MeOH; 1 mM intermediate of positive control Propantheline was prepared by diluting 10 μL of the stock solution with 90 μL ultrapure water. 100 μM dosing solution was prepared by diluting 20 μL of the intermediate solution (1 mM) with 180 μL MeOH. 98 μL of blank plasma was spiked with 2 μL of dosing solution (100 μM) to achieve 2 μM of the final concentration in duplicate and samples were incubated at 37° C. in a water bath. At each time point (0, 10, 30, 60 and 120 min), […] of stop solution (0.1% FA in MeOH containing 200 ng/mL tolbutamide and 200 ng/mL Labetalol) was added to precipitate protein and mixed thoroughly. Centrifuged sample plates at 4,000 rpm for 10 min. An aliquot of supernatant (100 μL) was transferred from each well to another plates.
Data analysis: The % remaining of test compound after incubation in plasma was calculated using following equation: % Remaining=100×(PAR at appointed incubation time/PAR at T0 time) where PAR is the peak area ratio of analyte versus internal standard (IS) (LC/MS/MS mobile phase condition: 0.1% Formic Acid in Water/0.1% Formic Acid in Acetonitrile. The appointed incubation time points are TO (0 min), Tn (n=0, 10, 30, 60, 120 min). Liver S9 Stability

[2] = Liver S9 stability and conversion to EFdA; assay type: in vitro ADME, human
Experimental: Intermediate solution: Dilute 5 μL of compounds or controls (7-ethoxycoumarin) from stock solution (10 mM) with 495 μL MeOH (Conc.: 100 μM, 1% DMSO, 99% MeOH). Stop solution: Cold ACN (including 100 ng/mL Tolbutamide and Labetalol as internal standard). Add 2 μL test compound or control working solution/well to all plates (T0, T5, T10, T20, T30, T60, NCF60) except matrix blank. Add 600 μL/well stop solution (cold in 4° C., including 100 ng/mL Tolbutamide/100 ng/mL Labetalol) to terminate the TO plate, then put it on ice. Dispense 840 μL/well S9 solution to 96-well plate as reservoir according to plate map. Then add 100 μL/well to every plate by Apricot. Incubate S9 solution and compound at 37° C. for about 10 min except NCF60 and TO. After adding S9 solution and 98 μLPB buffer to NCF60, incubate at 37° C. without pre-warming, start timer 1. After 60 min, add 600 μL/well stop solution to terminate the reaction. After pre-warming, dispense 760 μL/well cofactor solution to 96-well plate as reservoir according to plate map. Then add 98 μL/well to every plate by Apricot to start reaction. Incubate at 37° C., start timer 2, Add 600 μL/well stop solution (cold in 4° C., including 100 ng/mL Tolbutamide and Labetalol) to terminate the reaction. Samples are centrifuged at 4000 rpm for 20 min. While centrifuging, load 8×new 96-well plate with 300 μL HPLC water, then transfer 100 μL supernatant, mix with water for LC/MS/MS, transferred to Bioanalytical Services for LC-MS/MS analysis. Use equation of first order kinetics to calculate t1/2 and CL: Equation of first order kinetics: […]

[3] = Plasma exposures following oral administration to beagle dogs; conditions: for Prodrug formula 4-A Concentrations in Dog Plasma / EFdA Concentrations in Dog Plasma / concentration at 0.25 h / concentration at 0.5 h / concentration at 1 h: Prodrug formula 4-A PO 8.25 mg/kg; for concentration at 0.25 h / concentration at 0.5 h / concentration at 1 h: male, beagle, dog, in vivo, po, Prodrug formula 4-A Concentrations in Dog Plasma

C#C[C@]1(COC(=O)OCc2oc(=O)oc2C)O[C@@H](n2cnc3c(N)nc(F)nc32)C[C@@H]1O [Formula 4-A, ((2R,3S,5R)-5-(6-amino-2-fluoro-9H-purin-9-yl)-2-ethynyl-3-hydroxytetrahydrofuran-2-yl)methyl ((5-methyl-2-oxo-1,3-dioxol-4-yl)methyl) carbonate]
Conversion to the target drug (EFdA) in human plasma assay [1]: converted to the target drug efficiently | Stability in Human Plasma Formation of EFdA ([1]; human plasma): Yes | half-life at 2 µM ([1]; human, plasma, pH 7.4): < 50 min | Conversion to the target drug (EFdA) in liver S9 assay [2]: converted to the target drug efficiently | Stability in Human Liver S9 Formation of EFdA ([2]; human liver S9): Yes | half-life at 1 µM ([2]; human liver S9, 37° C.): < 50 min | Prodrug formula 4-A Concentrations in Dog Plasma ([3]; 0.250 hrs, individual animals, 8.25 mg/kg): 1.63 ng/mL and 1.09 ng/mL | Prodrug formula 4-A Concentrations in Dog Plasma ([3]; 0.500 hrs, individual animals, 8.25 mg/kg): BQL | Prodrug formula 4-A Concentrations in Dog Plasma ([3]; 1.00 hrs, individual animals, 8.25 mg/kg): BQL | Prodrug formula 4-A Concentrations in Dog Plasma ([3]; 2.00 hrs, individual animals): BQL | Prodrug formula 4-A Concentrations in Dog Plasma ([3]; 4.00 hrs, individual animals): BQL | Prodrug formula 4-A Concentrations in Dog Plasma ([3]; 6.00 hrs, individual animals): BQL | Prodrug formula 4-A Concentrations in Dog Plasma ([3]; 8.00 hrs, individual animals): BQL | EFdA Concentrations in Dog Plasma ([3]; 12.0 hrs, individual animals): BQL | Prodrug formula 4-A Concentrations in Dog Plasma ([3]; 12.0 hrs, individual animals): BQL | EFdA Concentrations in Dog Plasma ([3]; 24.0 hrs, individual animals): BQL | Prodrug formula 4-A Concentrations in Dog Plasma ([3]; 24.0 hrs, individual animals): BQL | EFdA AUC and Cmax compared with a dose-equivalent EFdA ([3]; dogs, oral): higher AUC and Cmax | Prodrug detected in the systemic circulation ([3]; dogs, oral): minimal prodrug detected in the systemic circulation | concentration at 0.25 h ([3]; 8.25 mg/kg, 0.250 hrs, Mean): 1.28 ng/mL | concentration at 0.25 h ([3]; 8.25 mg/kg, 0.250 hrs, individual animals): 1.13 ng/mL | concentration at 0.5 h ([3]; 8.25 mg/kg, 0.500 hrs, Mean): 1.68 ng/mL | concentration at 0.5 h ([3]; 8.25 mg/kg, 0.500 hrs, individual animals): 1.68 ng/mL | concentration at 1 h ([3]; 8.25 mg/kg, 1.00 hrs, Mean): 1.43 ng/mL | concentration at 1 h ([3]; 8.25 mg/kg, 1.00 hrs, individual animals): 1.43 ng/mL
